One block for each molecule: values may come before it. Positions of bridges follow the written chain, without caps; N, C: chain ends. Primed or numbered codes have the meaning given here. No end group written: not given here. *: point of attachment. PEG4′ = PEG4 spacer between biotin and the N-terminus; Biotin = O=C1N[C@H]2[C@H](CS[C@H]2CCCCC(=O)*)N1
Legend:
[1] = tested on: IgY‐Fc; experiment: Peptide-conjugated affinity column HPLC, IgY‐Fc; type: binding, chicken; conditions: for elution of IgY‐Fc from peptide column: 0.1 M glycine‐HCl, pH 2.5 vs pH 3.0, IgY and IgY‐Fc; for absorption of IgY‐Fc on peptide column: biotinylated peptide on HiTrap Streptavidin HP 1 mL, PBS wash
[2] = tested on: human IgG; experiment: Peptide-conjugated affinity column HPLC, human IgG; type: binding; conditions: biotinylated peptide on HiTrap Streptavidin HP 1 mL, PBS wash
[3] = tested on: human IgG; experiment: Immunoprecipitation with peptide-immobilized SA beads, human IgG; type: binding; conditions: biotinylated peptide on SA beads, shaken 1 h; SDS‐PAGE
[4] = tested on: IgY; experiment: Peptide-conjugated affinity column HPLC, IgY; type: binding, chicken; conditions: 0.1 M glycine‐HCl, pH 2.5 vs pH 3.0; IgY and IgY‐Fc
[5] = molecular target: Chicken egg yolk immunoglobulin (IgY) (chicken); experiment: SPR

Kd [5]: 4.4 µM
Molecule: {Biotin-PEG4′}-RSVCVWTAVTGWDCRND-NH2 (disulfide 4-14 (inferred)) [Y5‐55 synthetic peptide (biotinylated IgY‐binding peptide)]

Kd [5]: 7.3 µM
Molecule: {Biotin-PEG4′}-GVKCTWSSIVDWVCVDM-NH2 (disulfide 4-14 (inferred)) [Y4‐4 synthetic peptide (biotinylated IgY‐binding peptide)]

Second part, the molecule before the results:

Molecule: RSVCVWTAVTGWDCRND (disulfide 4-14 (inferred)) [Y5‐55]
elution of IgY‐Fc from peptide column [1]: eluted from the column at pH 2.5 and 3.0, although the elution peaks at pH 2.5 were sharper than those at pH 3.0
absorption of IgY‐Fc on peptide column [1]: IgY and IgY‐Fc proteins were absorbed onto both columns
human IgG on peptide column [2]: human IgG passed through both peptide‐immobilized columns
recovery of hIgG by peptide beads [3]: hIgG was not
elution of IgY from peptide column [4]: eluted from the column at pH 2.5 and 3.0, although the elution peaks at pH 2.5 were sharper than those at pH 3.0

Molecule: GVKCTWSSIVDWVCVDM (disulfide 4-14 (inferred)) [Y4‐4]
elution of IgY‐Fc from peptide column [1]: eluted from the column at pH 2.5 and 3.0, although the elution peaks at pH 2.5 were sharper than those at pH 3.0
absorption of IgY‐Fc on peptide column [1]: IgY and IgY‐Fc proteins were absorbed onto both columns
human IgG on peptide column [2]: human IgG passed through both peptide‐immobilized columns
recovery of hIgG by peptide beads [3]: hIgG was not
elution of IgY from peptide column [4]: eluted from the column at pH 2.5 and 3.0, although the elution peaks at pH 2.5 were sharper than those at pH 3.0
